Assay results as given in ChEMBL document CHEMBL1143337, “Novel boronated chlorin e6-based photosensitizers: synthesis, binding to albumin and antitumour efficacy” (Bioorg Med Chem, 2009).

What was measured:
[1] = Antitumor activity against rat M1 cells implanted in rat assessed as increase in tumor volume coefficient followed by light illumination at 25 mg/kg, ip after 21 days relative to control; type: functional; conditions: route intraperitoneal
[2] = Induction of necrosis in rat fibroblasts at 1 uM after 20 min post illumination to red light; type: cell-based; conditions: fibroblast
[3] = biological target: Albumin (Homo sapiens, UniProt P02768); assay: Binding affinity to human serum albumin; type: ADME; conditions: isolated protein
Sequence of Albumin (P02768 whole entry): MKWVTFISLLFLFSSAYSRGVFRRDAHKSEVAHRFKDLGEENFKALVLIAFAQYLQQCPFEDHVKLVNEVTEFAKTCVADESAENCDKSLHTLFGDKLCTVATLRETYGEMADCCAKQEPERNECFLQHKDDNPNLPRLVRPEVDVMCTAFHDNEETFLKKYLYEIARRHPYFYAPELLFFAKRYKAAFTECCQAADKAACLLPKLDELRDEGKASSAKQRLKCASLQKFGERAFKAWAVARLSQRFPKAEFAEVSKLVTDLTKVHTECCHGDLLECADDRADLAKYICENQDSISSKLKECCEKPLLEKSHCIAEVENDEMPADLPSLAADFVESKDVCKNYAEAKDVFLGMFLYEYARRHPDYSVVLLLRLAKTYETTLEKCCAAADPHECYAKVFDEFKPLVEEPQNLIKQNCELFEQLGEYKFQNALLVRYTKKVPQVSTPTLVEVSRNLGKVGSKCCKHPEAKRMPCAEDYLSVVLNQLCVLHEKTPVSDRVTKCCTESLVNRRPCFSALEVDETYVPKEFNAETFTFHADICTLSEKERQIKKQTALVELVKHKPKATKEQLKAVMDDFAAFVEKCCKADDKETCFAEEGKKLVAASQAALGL

[4] = Antitumor activity against rat M1 cells implanted in rat assessed as increase in tumor volume coefficient followed by light illumination at 25 mg/kg, ip after 14 days relative to control; type: functional; conditions: route intraperitoneal

With C=Cc1c(C)c2cc3nc(c(CC(=O)OC)c4[nH]c(cc5nc(cc1[nH]2)C(C)=C5CC)c(C)c4C(=O)NCCN)[C@@H](CCC(=O)OC)C3C (some centres undefined) the “fold change (FC)” value [1] was 14.5, the Activity [2] was “Toxic” and the Kb [3] was 2 ×10⁵ /M. For the same compound, the “fold change (FC)” value [4] was 6.6.
